Laboratory results taken from publication PMC8232621, “Antimicrobial Activity of a Library of Thioxanthones and Their Potential as Efflux Pump Inhibitors” (Pharmaceuticals, 2021).
Where two headings read alike, the source gives them in different places.

What was measured:
E. faecalis ATCC 29212 = test: Antibacterial activity, broth microdilution MIC; assay type: cell-based; conditions: Enterococcus faecalis
From the text: (§1) The referred library of thioxanthones was initially tested for their antimicrobial activity against six bacterial strains: the Gram-negative Escherichia coli ATCC 25922, Pseudomonas aeruginosa ATCC 27853 and Salmonella enterica serovar Typhimurium SL1344 (SE03), with the acrA gene deleted, and the Gram-positive Staphylococcus aureus ATCC 29213, Enterococcus faecalis ATCC 29212 and the methicillin and ofloxacin-resistant clinical isolate S. aureus 272123. For the synergy assay, two clinically relevant isolates were used: the extended-spectrum β-lactamase (ESBL)-producing E. coli SA/2 [23] and the vancomycin-resistant E. faecalis (VRE) B3/101 [23]. The antibiotics used were cefotaxime (CTX) and vancomycin (VAN), respectively.
(§2) The minimum inhibitory concentration (MIC) for each compound was determined by broth microdilution method in a 96-well plate according to the Clinical and Laboratory Standard Institute (CLSI) guidelines. The medium used was MHB II. The concentrations tested ranged from 100 µM to 0.195 µM and were prepared from a stock solution of 10 mM in DMSO, for S. aureus 272123 and SE03; for the other strains, the concentrations tested ranged from 64 µg/mL to 4 µg/mL and were prepared from a stock solution of 10 mg/mL in DMSO. DMSO was used in subinhibitory concentrations (1% v/v). The MIC was determined by visual inspection.

S. aureus 272123 = test: Antibacterial activity, broth microdilution MIC; assay type: cell-based; conditions: Staphylococcus aureus, 272123, read-out: Minimum Inhibitory Concentration (MIC)
From the text: as §1, §2

S. aureus ATCC 29213 = test: Antibacterial activity, broth microdilution MIC; assay type: cell-based; conditions: Staphylococcus aureus
From the text: as §1, §2

SE03 = test: Antibacterial activity, broth microdilution MIC; assay type: cell-based, Salmonella enterica serovar Typhimurium SL1344; conditions: Salmonella enterica, read-out: Minimum Inhibitory Concentration (MIC)
From the text: as §1, §2

E. coli ATCC 25922 = test: Antibacterial activity, broth microdilution MIC; assay type: cell-based; conditions: Escherichia coli, ATCC25922, read-out: Minimum Inhibitory Concentration (MIC)
From the text: as §1, §2

P. aeruginosa ATCC 27853 = test: Antibacterial activity, broth microdilution MIC; assay type: cell-based; conditions: Pseudomonas aeruginosa, ATCC27853, read-out: Minimum Inhibitory Concentration (MIC)
From the text: as §1, §2

P-glycoprotein (P-gp) = target: T1, P-glycoprotein (P-gp) (Homo sapiens, UniProt P08183); test: P-gp transport activity, RHO 123 accumulation in Caco-2 cells in presence of compounds (90 min); assay type: cell-based; conditions: 20 µM only during the 90 min incubation with RHO 123
T1 construct: P-glycoprotein (P-gp) activity assessed by fluorescence spectroscopy in Caco-2 cells; endogenous in cells; host or cells: Caco-2 cells (ECACC)
T1 sequence (P08183 whole entry): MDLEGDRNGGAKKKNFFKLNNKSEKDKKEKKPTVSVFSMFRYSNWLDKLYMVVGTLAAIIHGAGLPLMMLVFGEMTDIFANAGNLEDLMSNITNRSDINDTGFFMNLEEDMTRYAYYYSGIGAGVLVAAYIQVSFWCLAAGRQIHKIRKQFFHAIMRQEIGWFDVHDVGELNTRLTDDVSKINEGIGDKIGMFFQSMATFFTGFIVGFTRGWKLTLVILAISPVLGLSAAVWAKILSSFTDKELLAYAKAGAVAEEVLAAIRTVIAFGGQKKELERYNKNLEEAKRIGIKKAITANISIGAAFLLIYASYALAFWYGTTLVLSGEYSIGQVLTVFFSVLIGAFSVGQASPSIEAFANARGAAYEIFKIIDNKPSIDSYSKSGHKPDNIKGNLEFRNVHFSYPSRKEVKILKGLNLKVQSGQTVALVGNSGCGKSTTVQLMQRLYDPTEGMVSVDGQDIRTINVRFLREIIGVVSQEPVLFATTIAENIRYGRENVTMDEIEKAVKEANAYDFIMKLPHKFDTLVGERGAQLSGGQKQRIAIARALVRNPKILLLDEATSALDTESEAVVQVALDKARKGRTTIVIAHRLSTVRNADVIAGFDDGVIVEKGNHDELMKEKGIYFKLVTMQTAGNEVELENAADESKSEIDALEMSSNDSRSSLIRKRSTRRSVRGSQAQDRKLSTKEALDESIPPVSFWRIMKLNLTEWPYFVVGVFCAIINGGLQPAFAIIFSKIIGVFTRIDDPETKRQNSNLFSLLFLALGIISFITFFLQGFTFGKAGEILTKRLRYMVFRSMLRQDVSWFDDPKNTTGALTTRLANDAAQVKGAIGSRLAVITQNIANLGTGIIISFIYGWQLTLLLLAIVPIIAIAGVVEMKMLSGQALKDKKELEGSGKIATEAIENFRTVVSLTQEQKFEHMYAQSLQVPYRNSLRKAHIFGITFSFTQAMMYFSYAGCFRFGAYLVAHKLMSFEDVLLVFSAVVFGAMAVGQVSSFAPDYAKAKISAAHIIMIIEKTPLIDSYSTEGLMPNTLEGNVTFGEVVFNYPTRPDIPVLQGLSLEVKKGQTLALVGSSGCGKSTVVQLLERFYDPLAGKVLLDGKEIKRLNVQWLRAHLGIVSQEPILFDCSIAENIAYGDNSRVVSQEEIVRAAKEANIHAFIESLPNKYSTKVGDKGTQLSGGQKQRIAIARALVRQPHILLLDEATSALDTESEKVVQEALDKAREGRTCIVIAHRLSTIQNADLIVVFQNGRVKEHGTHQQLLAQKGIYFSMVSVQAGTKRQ
Experimental: Concerning the second experimental approach used to evaluate the effects of the compounds in P-gp activity, Caco-2 cells were exposed to thioxanthone derivatives (20 µM) only during the 90 min of incubation with the fluorescent substrate (RHO 123, 10 µM). This experimental approach aims to evaluate the potential immediate effects of thioxanthone derivatives on P-gp activity as a result of a direct inhibition or activation of the protein, i.e., not to change the protein expression. […] In contrast, compounds 12 and 13 caused a significant and immediate decrease in P-gp activity (to 82 and 85%, respectively), when compared to control cells (0 µM).
The effect of the tested compounds on P-gp activity was evaluated using rhodamine 123 (RHO 123) as a P-gp fluorescent substrate, and ZOS as a specific third-generation P-gp inhibitor. Indeed, several studies report the use of RHO 123 accumulation/efflux assays for the direct assessment of P-gp activity through the quantification of the intracellular fluorescence of the P-gp substrate. Caco-2 cells were seeded in 24-well plates at a density of 60,000 cells/cm^2 and, three days after seeding, and submitted to two different protocols of RHO 123 accumulation: 1) RHO 123 accumulation in cells pre-exposed to the compounds (20 µM) for 24 h; 2) RHO 123 accumulation in the presence of the tested compounds (20 µM) for 90 min, as previously described.
On the other hand, in the second protocol, the cells were exposed to the tested compounds 30 min prior to addition of the P-gp fluorescent substrate, RHO 123, and remained in contact with the cells only during the substrate accumulation period, thus aiming to detect immediate effects of the tested compounds on P-gp activity as a result of a direct P-gp activation or inhibition. For that purpose, three days after seeding, the cell culture medium was removed, and the cells submitted to the following procedures:
RHO 123 accumulation under normal conditions (NA): pre-exposure to compounds (20 μM), prepared in HBSS (+/+), for 30 min at 37 °C, followed by incubation with RHO 123 (5 μM) for 90 min, at 37 °C, in a humidified 5% CO2 and 95% O2 air atmosphere. Control cells were only exposed to RHO 123.
RHO 123 accumulation in the presence of the P-gp inhibitor (IA): simultaneous pre-exposure to compounds (20 μM) and ZOS (5 μM), both prepared in HBSS (+/+), for 30 min at 37 °C, followed by incubation with RHO 123 (5 μM) for 90 min, at 37 °C, in a humidified 5% CO2 and 95% O2 air atmosphere. Control cells were only exposed to ZOS and RHO 123.
After the 90 min of incubation with RHO 123, the cells were washed twice with HBSS (-/-) and lysed with 1% Triton™ X100, for 30 min, in the dark, at room temperature. RHO 123 intracellular fluorescence was then measured at excitation/emission wavelengths of 485/528 nm, in a multi-well plate reader (PowerWave-X, BioTek Instruments, VT, USA) and expressed as fluorescence intensity (FI). The ratio between the FI after inhibited RHO 123 accumulation (IA) and the FI of non-inhibited RHO 123 accumulation (NA) was the parameter used for comparison, and the results were expressed as a percentage of control cells (Equation (3)). Given the high autofluorescence of several of the tested compounds at the conditions used to measure RHO 123 fluorescence, only compounds 9, 10, 12, 13, and 14 were able to be tested for their potential immediate effect on P-gp activity. Four independent experiments were performed, in triplicate.

[1] = ATCC29212, read-out: Minimum Inhibitory Concentration (MIC)
[2] = ATCC29212, E. faecalis ATCC 29212, read-out: Minimum Inhibitory Concentration (MIC)
[3] = ATCC29213, read-out: Minimum Inhibitory Concentration (MIC)
[4] = ATCC29213, S. aureus ATCC 29213, read-out: Minimum Inhibitory Concentration (MIC)

Compound	MIC (E. faecalis ATCC 29212; [1])	MIC (E. faecalis ATCC 29212; [2])	MIC (S. aureus 272123)	MIC (S. aureus ATCC 29213; [3])	MIC (S. aureus ATCC 29213; [4])	MIC (SE03)	MIC (E. coli ATCC 25922)	MIC (P. aeruginosa ATCC 27853)	P-gp activity (control cells 100%) (P-glycoprotein (P-gp))
CCCOc1ccc(NCCN(CC)CC)c2c(=O)c3ccccc3sc12 [Compound 2]	83 µM	32 µg/mL	> 100 µM	83 µM	32 µg/mL	> 100 µM	–	–	–
CCCOc1ccc(N2CCCCC2)c2c(=O)c3ccccc3sc12 [Compound 3]	–	> 100 µM	> 100 µM	–	> 100 µM	> 100 µM	–	–	–
CCCOc1ccc(Nc2nc(C)cc(C)n2)c2c(=O)c3ccccc3sc12 [Compound 8, 1-[(4,6-Dimethylpyrimidin-2-yl)amino]-4-propoxy-9H-thioxanthen-9-one]	–	> 100 µM	> 100 µM	–	> 100 µM	> 100 µM	> 100 µM	> 100 µM	–
CCCOc1ccc(N2CCNC(=O)C2)c2c(=O)c3ccccc3sc12 [Compound 9, 4-(9-Oxo-4-propoxy-9H-thioxanthen-1-yl)piperazin-2-one]	–	> 100 µM	> 100 µM	–	> 100 µM	> 100 µM	> 100 µM	> 100 µM	no significant differences
CCCOc1ccc(NCCO)c2c(=O)c3ccccc3sc12 [Compound 10, 1-[(2-Hydroxyethyl)amino]-4-propoxy-9H-thioxanthen-9-one]	–	> 100 µM	> 100 µM	–	> 100 µM	> 100 µM	> 100 µM	> 100 µM	no significant differences
CCCOc1ccc(NCCN2CCOCC2)c2c(=O)c3ccccc3sc12 [Compound 11, 1-[(2-Morpholinoethyl)amino]-4-propoxy-9H-thioxanthen-9-one]	–	> 100 µM	> 100 µM	–	> 100 µM	> 100 µM	> 100 µM	> 100 µM	–
CCCOc1ccc(NS(=O)(=O)c2ccc(C(=O)O)cc2)c2c(=O)c3ccccc3sc12 [Compound 12, 4-[N-(9-Oxo-4-propoxy-9H-thioxanthen-1-yl)sulfamoyl]benzoic acid]	34 µM	16 µg/mL	> 100 µM	34 µM	16 µg/mL	50 µM	> 100 µM	> 100 µM	82%
CCCOc1ccc(NS(=O)(=O)c2ccc(N)cc2)c2c(=O)c3ccccc3sc12 [Compound 13, 4-Amino-N-(9-oxo-4-propoxy-9H-thioxanthen-1-yl)benzenesulfonamide]	–	> 100 µM	> 100 µM	–	> 100 µM	> 100 µM	> 100 µM	> 100 µM	85%
CCCOc1ccc(Br)c2c(=O)c3ccccc3sc12 [Compound 14, 1-Bromo-4-propoxy-9H-thioxanthen-9-one]	–	> 100 µM	> 100 µM	–	> 100 µM	> 100 µM	> 100 µM	> 100 µM	116%
CCCOc1ccc2ncnc3c2c1Sc1ccccc1-3 [Compound 15]	–	> 100 µM	> 100 µM	–	> 100 µM	> 100 µM	> 100 µM	> 100 µM	–
CCCOc1ccc2nc(N)nc3c2c1Sc1ccccc1-3 [Compound 16]	–	> 100 µM	> 100 µM	–	> 100 µM	> 100 µM	> 100 µM	> 100 µM	–
CCCOc1ccc2nc(NCc3ccccc3Cl)nc3c2c1Sc1ccccc1-3 [Compound 17]	–	> 100 µM	> 100 µM	–	> 100 µM	> 100 µM	> 100 µM	> 100 µM	–
CCCOc1ccc2c3c(n/c(=N\c4ccccc4C)n2-c2ccccc2C)-c2ccccc2Sc13 [Compound 18]	–	> 100 µM	> 100 µM	–	> 100 µM	> 100 µM	> 100 µM	> 100 µM	–
